# Active and inactive are the calls of the source. The rule behind the calls is not given here.
# Key:
# OVCAR-3 = test: Growth inhibition of human OVCAR3 cells at 10 uM by NCI-60 cell inhibition assay; type: functional; conditions: read-out: GI
# OVCAR-4 = test: Growth inhibition of human OVCAR4 cells at 10 uM by NCI-60 cell inhibition assay; type: functional; conditions: read-out: GI
# IGROV-1 = test: Growth inhibition of human IGROV1 cells at 10 uM by NCI-60 cell inhibition assay; type: functional; conditions: read-out: GI
# UACC-257 = test: Growth inhibition of human UACC257 cells at 10 uM by NCI-60 cell inhibition assay; type: functional; conditions: read-out: GI
# SK-MEL-5 = test: Growth inhibition of human SK-MEL-5 cells at 10 uM by NCI-60 cell inhibition assay; type: functional; conditions: read-out: GI
# SK-MEL-2 = test: Growth inhibition of human SK-MEL-2 cells at 10 uM by NCI-60 cell inhibition assay; type: functional; conditions: read-out: GI
# Malme-3M = test: Growth inhibition of human MALME-3M cells at 10 uM by NCI-60 cell inhibition assay; type: functional; conditions: read-out: GI
# M14 = test: Growth inhibition of human M14 cells at 10 uM by NCI-60 cell inhibition assay; type: functional; conditions: read-out: GI
# LOX IMVI = test: Growth inhibition of human LOXIMVI cells at 10 uM by NCI-60 cell inhibition assay; type: functional; conditions: read-out: GI
# SNB-75 = test: Growth inhibition of human SNB75 cells at 10 uM by NCI-60 cell inhibition assay; type: functional; conditions: read-out: GI
# SNB-19 = test: Growth inhibition of human SNB19 cells at 10 uM by NCI-60 cell inhibition assay; type: functional; conditions: read-out: GI
# SF-268 = test: Growth inhibition of human SF268 cells at 10 uM by NCI-60 cell inhibition assay; type: functional; conditions: read-out: GI
# SF-295 = test: Growth inhibition of human SF295 cells at 10 uM by NCI-60 cell inhibition assay; type: functional; conditions: read-out: GI
# KM12 = test: Growth inhibition of human KM12 cells at 10 uM by NCI-60 cell inhibition assay; type: functional; conditions: read-out: GI
# HCT-15 = test: Growth inhibition of human HCT15 cells at 10 uM by NCI-60 cell inhibition assay; type: functional; conditions: read-out: GI
# HT-29 = test: Growth inhibition of human HT-29 cells at 10 uM by NCI-60 cell inhibition assay; type: functional; conditions: read-out: GI
# HCT-116 = test: Growth inhibition of human HCT116 cells at 10 uM by NCI-60 cell inhibition assay; type: functional; conditions: read-out: GI
# NCI-H522 = test: Growth inhibition of human NCI-H522 cells at 10 uM by NCI-60 cell inhibition assay; type: functional; conditions: read-out: GI
# NCI-H460 = test: Growth inhibition of human NCI-H460 cells at 10 uM by NCI-60 cell inhibition assay; type: functional; conditions: read-out: GI
# NCI-H322M = test: Growth inhibition of human NCI-H322M cells at 10 uM by NCI-60 cell inhibition assay; type: functional; conditions: read-out: GI
# NCI-H226 = test: Growth inhibition of human NCI-H226 cells at 10 uM by NCI-60 cell inhibition assay; type: functional; conditions: read-out: GI
# HOP-62 = test: Growth inhibition of human HOP62 cells at 10 uM by NCI-60 cell inhibition assay; type: functional; conditions: read-out: GI
# HOP-92 = test: Growth inhibition of human HOP92 cells at 10 uM by NCI-60 cell inhibition assay; type: functional; conditions: read-out: GI
# A549 = test: Growth inhibition of human A549/ATCC cells at 10 uM by NCI-60 cell inhibition assay; type: functional; conditions: read-out: GI
# EKVX = test: Growth inhibition of human EKVX cells at 10 uM by NCI-60 cell inhibition assay; type: functional; conditions: read-out: GI
# SR = test: Growth inhibition of human SR cells at 10 uM by NCI-60 cell inhibition assay; type: functional; conditions: read-out: GI
# [1] = Growth inhibition of human […] cells at 10 uM by NCI-60 cell inhibition assay; type: functional; conditions: read-out: GI
# MOLT-4 = test: Growth inhibition of human MOLT4 cells at 10 uM by NCI-60 cell inhibition assay; type: functional; conditions: read-out: GI
# HL-60(TB) = test: Growth inhibition of human HL-60(TB) cells at 10 uM by NCI-60 cell inhibition assay; type: functional; conditions: read-out: GI
# K562 = test: Growth inhibition of human K562 cells at 10 uM by NCI-60 cell inhibition assay; type: functional; conditions: read-out: GI
# [2] = Stability in cell culture medium without serum assessed as compound recovery after 72 hrs; type: physicochemical; conditions: read-out: Stability
# [3] = Inhibition of eIF2 protein expression in human Hs683 cells at 0.5 uM after 4 hrs by Western blotting method; type: functional, cell-based; conditions: Hs 683
# Hs 683 [4] = test: Inhibition of eIF2 activity in human Hs683 cells at 0.5 uM after 4 hrs by Western blotting method; type: functional, cell-based
# [5] = Solubility of compound at pH 7.4; type: physicochemical; conditions: buffer, read-out: solubility
# [6] = Cytostatic activity in human U373 cells at 0.4 uM assessed global growth ratio after 72 hrs by quantitative video microscopy; type: functional, U-373MG ATCC
# [7] = Growth inhibition of human OE21 cells after 3 days by MTT assay; type: functional, cell-based; conditions: OE21, 72 h
# MDA-MB-468 = test: Growth inhibition of human MDA-MB-468 cells at 10 uM by NCI-60 cell inhibition assay; type: functional; conditions: read-out: GI
# T47D = test: Growth inhibition of human T47D cells at 10 uM by NCI-60 cell inhibition assay; type: functional; conditions: read-out: GI
# BT-549 = test: Growth inhibition of human BT549 cells at 10 uM by NCI-60 cell inhibition assay; type: functional; conditions: read-out: GI
# MDA-MB-231 = test: Growth inhibition of human MDA-MB-231 cells at 10 uM by NCI-60 cell inhibition assay; type: functional; conditions: read-out: GI
# [8] = Growth inhibition of human Hs 578T cells at 10 uM by NCI-60 cell inhibition assay; type: functional; conditions: read-out: GI
# DU-145 = test: Growth inhibition of human DU145 cells at 10 uM by NCI-60 cell inhibition assay; type: functional; conditions: read-out: GI
# PC-3 = test: Growth inhibition of human PC3 cells at 10 uM by NCI-60 cell inhibition assay; type: functional; conditions: read-out: GI
# UO-31 = test: Growth inhibition of human UO31 cells at 10 uM by NCI-60 cell inhibition assay; type: functional; conditions: read-out: GI
# SN12C = test: Growth inhibition of human SN12C cells at 10 uM by NCI-60 cell inhibition assay; type: functional; conditions: read-out: GI
# A498 = test: Growth inhibition of human A498 cells at 10 uM by NCI-60 cell inhibition assay; type: functional; conditions: read-out: GI
# 786-0 = test: Growth inhibition of human 786-0 cells at 10 uM by NCI-60 cell inhibition assay; type: functional; conditions: read-out: GI
# SK-OV-3 = test: Growth inhibition of human SKOV3 cells at 10 uM by NCI-60 cell inhibition assay; type: functional; conditions: read-out: GI
# [9] = Growth inhibition of human NCI-ADR-RES cells at 10 uM by NCI-60 cell inhibition assay; type: functional; conditions: read-out: GI
# OVCAR-8 = test: Growth inhibition of human OVCAR8 cells at 10 uM by NCI-60 cell inhibition assay; type: functional; conditions: read-out: GI
# Hs 683 [10] = test: cells; conditions: Homo sapiens, Hs 683, 72 h
# T98G = test: cells; conditions: Homo sapiens, 72 h
structure (smiles),measurement,setting,value
Cc1c2c(cc[n+]1Cc1ccccc1)c1ccc(OCC3CCCCC3)cc1n2CC1CCCCC1.[Br-],inhibition of growth at 10 µM,OVCAR-3,-100%
same,inhibition of growth at 10 µM,OVCAR-4,-94.3%
same,inhibition of growth at 10 µM,IGROV-1,-70.6%
same,inhibition of growth at 10 µM,UACC-257,-92.4%
same,inhibition of growth at 10 µM,SK-MEL-5,-100%
same,inhibition of growth at 10 µM,SK-MEL-2,-86.5%
same,inhibition of growth at 10 µM,Malme-3M,-70.3%
same,inhibition of growth at 10 µM,M14,-84.6%
same,inhibition of growth at 10 µM,LOX IMVI,-95.6%
same,inhibition of growth at 10 µM,SNB-75,-87.3%
same,inhibition of growth at 10 µM,SNB-19,-90.7%
same,inhibition of growth at 10 µM,SF-268,-98.7%
same,inhibition of growth at 10 µM,SF-295,-92.8%
same,inhibition of growth at 10 µM,KM12,-99.9%
same,inhibition of growth at 10 µM,HCT-15,-81.7%
same,inhibition of growth at 10 µM,HT-29,-79%
same,inhibition of growth at 10 µM,HCT-116,-98.3%
same,inhibition of growth at 10 µM,NCI-H522,-84.5%
same,inhibition of growth at 10 µM,NCI-H460,-93.4%
same,inhibition of growth at 10 µM,NCI-H322M,-83.2%
same,inhibition of growth at 10 µM,NCI-H226,-89.1%
same,inhibition of growth at 10 µM,HOP-62,-95%
same,inhibition of growth at 10 µM,HOP-92,-85.6%
same,inhibition of growth at 10 µM,A549,-93.1%
same,inhibition of growth at 10 µM,EKVX,-75.5%
same,inhibition of growth at 10 µM,SR,-57.6%
same,inhibition of growth at 10 µM,[1],-45.2%
same,inhibition of growth at 10 µM,MOLT-4,-64.5%
same,inhibition of growth at 10 µM,HL-60(TB),-53.4%
same,inhibition of growth at 10 µM,K562,-45.9%
same,remaining at 72 h,[2],> 95%
same,inhibition,[3],inactive
same,inhibition,Hs 683 [4],inactive
same,solubility,[5],123 µM
same,Ratio,[6],0.25
same,IC50,[7],0.42 µM
same,inhibition of growth at 10 µM,MDA-MB-468,-86.6%
same,inhibition of growth at 10 µM,T47D,-74.1%
same,inhibition of growth at 10 µM,BT-549,-91%
same,inhibition of growth at 10 µM,MDA-MB-231,-92%
same,inhibition of growth at 10 µM,[8],-36.2%
same,inhibition of growth at 10 µM,DU-145,-100%
same,inhibition of growth at 10 µM,PC-3,-75.8%
same,inhibition of growth at 10 µM,UO-31,-93.1%
same,inhibition of growth at 10 µM,SN12C,-91.9%
same,inhibition of growth at 10 µM,A498,-97.4%
same,inhibition of growth at 10 µM,786-0,-91.3%
same,inhibition of growth at 10 µM,SK-OV-3,-53.4%
same,inhibition of growth at 10 µM,[9],31.5%
same,inhibition of growth at 10 µM,OVCAR-8,-90.1%
same,IC50,Hs 683 [10],0.38 µM
same,IC50,T98G,0.16 µM
Cc1c2c(cc[n+]1Cc1ccccc1)c1ccc(OCc3ccccc3)cc1n2Cc1ccccc1.[Br-],inhibition of growth at 10 µM,OVCAR-3,-97.1%
same,inhibition of growth at 10 µM,OVCAR-4,-3.79%
same,inhibition of growth at 10 µM,IGROV-1,-65.1%
same,inhibition of growth at 10 µM,UACC-257,-0.65%
same,inhibition of growth at 10 µM,SK-MEL-5,-99.4%
same,inhibition of growth at 10 µM,SK-MEL-2,-36%
same,inhibition of growth at 10 µM,Malme-3M,-73.6%
same,inhibition of growth at 10 µM,M14,-87.9%
same,inhibition of growth at 10 µM,LOX IMVI,-93.2%
same,inhibition of growth at 10 µM,SNB-75,-18%
same,inhibition of growth at 10 µM,SNB-19,-13.3%
same,inhibition of growth at 10 µM,SF-268,-90.4%
same,inhibition of growth at 10 µM,SF-295,-69.2%
same,inhibition of growth at 10 µM,KM12,-98.4%
same,inhibition of growth at 10 µM,HCT-15,39.2%
same,inhibition of growth at 10 µM,HT-29,-48.6%
same,inhibition of growth at 10 µM,HCT-116,-95.6%
same,inhibition of growth at 10 µM,NCI-H522,-47.1%
same,inhibition of growth at 10 µM,NCI-H460,-87.5%
same,inhibition of growth at 10 µM,NCI-H322M,-26.9%
same,inhibition of growth at 10 µM,NCI-H226,-12%
same,inhibition of growth at 10 µM,HOP-62,-70.9%
same,inhibition of growth at 10 µM,HOP-92,-67.8%
same,inhibition of growth at 10 µM,A549,4.01%
same,inhibition of growth at 10 µM,EKVX,-28.8%
same,inhibition of growth at 10 µM,SR,-52.5%
same,inhibition of growth at 10 µM,[1],-21.6%
same,inhibition of growth at 10 µM,MOLT-4,-51%
same,inhibition of growth at 10 µM,HL-60(TB),-54.1%
same,inhibition of growth at 10 µM,K562,-25%
same,remaining at 72 h,[2],> 95%
same,inhibition,[3],Active
same,inhibition,Hs 683 [4],Active
same,solubility,[5],461 µM
same,Ratio,[6],0.4
same,IC50,[7],1.3 µM
same,inhibition of growth at 10 µM,MDA-MB-468,-42.3%
same,inhibition of growth at 10 µM,T47D,-4.02%
same,inhibition of growth at 10 µM,BT-549,-90.4%
same,inhibition of growth at 10 µM,MDA-MB-231,-85.1%
same,inhibition of growth at 10 µM,[8],-35.9%
same,inhibition of growth at 10 µM,DU-145,-33.6%
same,inhibition of growth at 10 µM,PC-3,-44.8%
same,inhibition of growth at 10 µM,UO-31,-18.2%
same,inhibition of growth at 10 µM,SN12C,-86.6%
same,inhibition of growth at 10 µM,A498,-34.5%
same,inhibition of growth at 10 µM,786-0,-87.4%
same,inhibition of growth at 10 µM,SK-OV-3,7.67%
same,inhibition of growth at 10 µM,[9],65%
same,inhibition of growth at 10 µM,OVCAR-8,-70.9%
same,IC50,Hs 683 [10],0.5 µM
same,IC50,T98G,0.48 µM

# Source: ChEMBL document CHEMBL2163222 (J Med Chem, 2012)
